Laboratory results as given in patent EP4775583A1, “COMPOUND OR SALT THEREOF, METHOD FOR PRODUCING SAME, PHARMACEUTICAL COMPOSITION CONTAINING COMPOUND OR SALT THEREOF, AND METHOD FOR PRODUCING SAME” (Celaid Therapeutics Inc., priority 2023, dated 2025).
“Also recorded” adds a separate entry of the source. Counter-ions that a name gives are not always drawn.

Legend:
[1] = test system: mouse neuroblastoma N2a cells; assay: Neurite outgrowth assay; type: cell-based; conditions: for neurite outgrowth / neurite outgrowth-promoting activity, comparison between compounds: 0.2 µM, 48 h treatment (Fig. 21(B)); for neurite outgrowth-promoting activity, comparison between compounds: structure-activity comparison; for dose-dependent neurite outgrowth activity: 0.02 - 2 µM, 48 h treatment (Fig. 21(C))
Method: The Mouse Neuro-2a (N2a) cell line was obtained from the Japanese Collection of Research Bioresources (JCRB) Cell Bank. The N2a cells were plated at a concentration of 1 × 10^4 cells/mL in Dulbecco's modified Eagle's medium (hereinafter also referred to as DMEM) containing high glucose, 10% FBS, 100 U/mL penicillin, and 100 µg/mL streptomycin at 37 °C in a humidified atmosphere of 5% CO2.
For the neurite outgrowth assay, the medium was changed to DMEM supplemented with 2% FBS. After incubation with the test compounds, cell morphology was examined using a microscope (Olympus CKX41).
The differentiated cells were defined as those with at least one neurite that was longer than twice the diameter of the cell body. The results were expressed as the percentage of differentiated cells among the counted cells. These experiments were carried out in triplicate.

HDAC1 = HDAC1 (Homo sapiens, UniProt Q13547); assay: HDAC1 inhibitory activity, in vitro assay; type: biochemical; conditions: in vitro assay (Fig. 27)
Chain of HDAC1 (Q13547 whole entry, species assumed): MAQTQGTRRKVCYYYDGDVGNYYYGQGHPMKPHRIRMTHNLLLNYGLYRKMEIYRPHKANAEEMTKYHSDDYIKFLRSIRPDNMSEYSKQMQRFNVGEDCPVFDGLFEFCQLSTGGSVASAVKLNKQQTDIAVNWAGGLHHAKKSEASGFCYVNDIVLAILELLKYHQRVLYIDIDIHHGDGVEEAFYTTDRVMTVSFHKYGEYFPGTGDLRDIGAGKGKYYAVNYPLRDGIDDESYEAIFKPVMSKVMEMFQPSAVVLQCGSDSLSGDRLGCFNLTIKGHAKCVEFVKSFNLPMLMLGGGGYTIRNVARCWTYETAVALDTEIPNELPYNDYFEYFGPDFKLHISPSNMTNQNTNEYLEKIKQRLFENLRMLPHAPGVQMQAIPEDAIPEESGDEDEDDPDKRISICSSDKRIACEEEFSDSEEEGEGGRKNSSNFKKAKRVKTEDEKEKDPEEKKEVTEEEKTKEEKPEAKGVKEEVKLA

H3K4me3 = assay: Western blot detection of H3K4me3 levels; type: cell-based, Mouse; conditions: N2a cells, 24 h treatment (Fig. 26)
Method: (§1) The N2a cells (5 × 10^5 cells/2 mL/dish) were treated for 24 h with the test compounds at the indicated concentrations in a 10% FBS-supplemented cell culture medium, and cells were collected and extracted with SDS sampling buffer. Protein concentrations of the lysates were determined using a BCA protein assay. Equivalent amounts of protein from each lysate were resolved in 5% to 20% SDS-polyacrylamide gels, and bands were transferred onto PVDF membranes (Millipore, #IPVH00010 for β-actin detection, #ISEQ10100 for H3, H3K4me3, and H3K27Ac detection). After blocking with TBS-T containing 5% skimmed milk, the transblotted membranes were probed with primary antibodies. The following antibodies were used as the primary antibodies: rabbit monoclonal KDM5A antibody (CST #3876, 1 : 1000 dilution); mouse monoclonal β-actin antibody (Santa Cruz, #sc-47778, 1 : 2000 dilution); rabbit polyclonal H3K4me3 antibody (Abcam, #ab8580, 1 : 5000 dilution); rabbit polyclonal H3K27Ac antibody (Abcam, #ab4729, 1 : 1000 dilution); or rabbit polyclonal histone H3 antibody (Abcam, #ab1791, 1 : 200000 dilution). […]

KDM5A [2] = target: KDM5A (Homo sapiens, UniProt P29375); assay: KDM5A inhibitory activity, in vitro assay; type: biochemical; conditions: in vitro assay (Fig. 27)
Chain of KDM5A (Homo sapiens, UniProt P29375) (P29375 whole entry, species assumed): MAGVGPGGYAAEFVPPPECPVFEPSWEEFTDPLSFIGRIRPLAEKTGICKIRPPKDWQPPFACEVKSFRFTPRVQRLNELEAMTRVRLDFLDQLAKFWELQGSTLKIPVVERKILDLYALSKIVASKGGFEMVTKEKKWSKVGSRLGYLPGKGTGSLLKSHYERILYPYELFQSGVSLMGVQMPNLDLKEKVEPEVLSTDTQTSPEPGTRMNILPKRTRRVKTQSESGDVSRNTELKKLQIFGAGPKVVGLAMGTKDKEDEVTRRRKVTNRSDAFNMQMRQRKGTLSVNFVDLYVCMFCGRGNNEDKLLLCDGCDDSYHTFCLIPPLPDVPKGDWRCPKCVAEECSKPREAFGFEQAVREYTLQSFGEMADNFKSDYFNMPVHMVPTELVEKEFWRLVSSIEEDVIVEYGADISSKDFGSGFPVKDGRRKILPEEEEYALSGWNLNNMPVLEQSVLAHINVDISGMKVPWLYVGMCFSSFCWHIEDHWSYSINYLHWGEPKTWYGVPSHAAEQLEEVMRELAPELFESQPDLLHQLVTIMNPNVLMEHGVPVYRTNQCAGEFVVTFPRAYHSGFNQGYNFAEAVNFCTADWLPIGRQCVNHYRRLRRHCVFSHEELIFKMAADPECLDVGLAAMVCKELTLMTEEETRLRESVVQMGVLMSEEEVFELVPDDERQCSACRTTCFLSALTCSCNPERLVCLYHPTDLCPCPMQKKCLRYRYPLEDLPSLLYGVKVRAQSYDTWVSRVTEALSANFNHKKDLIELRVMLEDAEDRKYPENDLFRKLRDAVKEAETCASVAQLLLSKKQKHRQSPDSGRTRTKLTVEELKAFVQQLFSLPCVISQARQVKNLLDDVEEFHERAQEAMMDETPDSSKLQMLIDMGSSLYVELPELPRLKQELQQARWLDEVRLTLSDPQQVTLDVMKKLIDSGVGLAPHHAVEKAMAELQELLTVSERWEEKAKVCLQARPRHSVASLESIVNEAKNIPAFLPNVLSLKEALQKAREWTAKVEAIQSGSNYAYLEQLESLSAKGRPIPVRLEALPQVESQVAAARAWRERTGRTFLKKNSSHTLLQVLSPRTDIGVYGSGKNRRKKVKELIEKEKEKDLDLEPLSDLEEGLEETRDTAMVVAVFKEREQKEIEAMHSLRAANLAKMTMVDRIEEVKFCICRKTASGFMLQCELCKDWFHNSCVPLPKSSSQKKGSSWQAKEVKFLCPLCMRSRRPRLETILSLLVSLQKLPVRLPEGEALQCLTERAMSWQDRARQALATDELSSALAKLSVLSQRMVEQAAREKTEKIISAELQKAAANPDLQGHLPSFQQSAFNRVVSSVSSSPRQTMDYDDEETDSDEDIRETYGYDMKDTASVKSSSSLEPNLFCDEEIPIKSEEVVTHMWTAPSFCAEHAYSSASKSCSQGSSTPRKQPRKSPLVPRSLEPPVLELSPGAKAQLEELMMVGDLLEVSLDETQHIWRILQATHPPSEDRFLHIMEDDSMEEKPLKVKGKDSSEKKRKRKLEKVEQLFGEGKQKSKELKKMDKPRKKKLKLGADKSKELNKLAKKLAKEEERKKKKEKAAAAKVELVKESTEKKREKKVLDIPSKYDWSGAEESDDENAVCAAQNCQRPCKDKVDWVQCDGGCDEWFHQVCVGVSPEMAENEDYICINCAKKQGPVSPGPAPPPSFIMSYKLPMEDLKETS

H3K27Ac = assay: Western blot detection of H3K27Ac levels; type: cell-based, Mouse; conditions: N2a cells, 24 h treatment (Fig. 26)
Method: as §1

KDM5A [3] = target: T1, KDM5A (Mus musculus, UniProt Q3UXZ9); assay: Western blot detection of KDM5A levels (degradation); type: cell-based; conditions: N2a cells
T1 construct: Western Blot-Detection of KDM5A Levels in N2a Cells; endogenous in cells; host or cells: N2a (mouse neuroblastoma neuro-2a) cells
T1 sequence (Q3UXZ9 whole entry): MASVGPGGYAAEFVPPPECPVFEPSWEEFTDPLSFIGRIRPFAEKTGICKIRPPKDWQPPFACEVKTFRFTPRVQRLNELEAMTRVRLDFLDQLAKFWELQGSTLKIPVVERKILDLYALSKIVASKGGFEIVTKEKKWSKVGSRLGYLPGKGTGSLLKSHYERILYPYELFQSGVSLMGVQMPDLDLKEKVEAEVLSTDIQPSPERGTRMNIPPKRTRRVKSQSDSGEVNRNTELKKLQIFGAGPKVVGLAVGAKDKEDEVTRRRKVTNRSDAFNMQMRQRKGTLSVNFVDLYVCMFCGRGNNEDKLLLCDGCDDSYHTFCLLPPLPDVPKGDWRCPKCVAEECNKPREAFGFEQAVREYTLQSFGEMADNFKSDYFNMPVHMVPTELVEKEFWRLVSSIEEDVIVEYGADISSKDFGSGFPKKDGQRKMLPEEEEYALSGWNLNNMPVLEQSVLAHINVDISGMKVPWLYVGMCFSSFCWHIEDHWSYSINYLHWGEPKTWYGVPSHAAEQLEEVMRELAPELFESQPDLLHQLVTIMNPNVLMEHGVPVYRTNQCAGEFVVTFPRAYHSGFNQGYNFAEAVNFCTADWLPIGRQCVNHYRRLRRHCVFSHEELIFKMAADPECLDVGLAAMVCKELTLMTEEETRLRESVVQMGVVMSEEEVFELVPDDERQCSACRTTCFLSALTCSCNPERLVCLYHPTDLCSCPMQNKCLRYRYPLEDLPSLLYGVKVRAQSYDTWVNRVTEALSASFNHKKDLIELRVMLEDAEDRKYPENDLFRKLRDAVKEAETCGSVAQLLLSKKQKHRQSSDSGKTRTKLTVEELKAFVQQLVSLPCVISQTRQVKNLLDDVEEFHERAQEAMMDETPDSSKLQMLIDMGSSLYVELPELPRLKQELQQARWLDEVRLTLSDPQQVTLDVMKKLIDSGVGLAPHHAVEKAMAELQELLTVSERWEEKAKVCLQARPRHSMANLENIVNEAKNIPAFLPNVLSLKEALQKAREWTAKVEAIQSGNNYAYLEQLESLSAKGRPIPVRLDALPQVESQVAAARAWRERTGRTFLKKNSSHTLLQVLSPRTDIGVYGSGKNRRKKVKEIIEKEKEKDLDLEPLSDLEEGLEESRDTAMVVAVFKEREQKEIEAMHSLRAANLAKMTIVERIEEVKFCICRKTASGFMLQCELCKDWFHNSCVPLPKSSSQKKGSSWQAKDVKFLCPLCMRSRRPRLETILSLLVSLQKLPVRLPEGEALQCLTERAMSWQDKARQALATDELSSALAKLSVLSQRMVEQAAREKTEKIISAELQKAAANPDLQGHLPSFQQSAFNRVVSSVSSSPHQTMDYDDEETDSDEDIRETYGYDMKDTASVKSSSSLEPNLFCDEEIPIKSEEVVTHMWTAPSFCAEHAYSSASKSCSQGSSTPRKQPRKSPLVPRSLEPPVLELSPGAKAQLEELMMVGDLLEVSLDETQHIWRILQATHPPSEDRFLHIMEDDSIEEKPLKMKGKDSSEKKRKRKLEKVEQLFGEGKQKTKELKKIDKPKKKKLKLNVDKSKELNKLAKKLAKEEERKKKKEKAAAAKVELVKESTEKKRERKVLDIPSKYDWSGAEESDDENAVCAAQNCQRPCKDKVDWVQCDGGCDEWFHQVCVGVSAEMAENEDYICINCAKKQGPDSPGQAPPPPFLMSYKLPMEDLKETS
Method: as §1

For `CC(C)c1c(-c2ccc(CCN(C)CCCCCCC(=O)NCCOCCOCCOc3cccc4c3C(=O)N(C3CCC(=O)NC3=O)C4=O)cc2)[nH]c2c(C#N)cnn2c1=O` (centres unmarked) [Compound 14a, hydrochloride], which neurite outgrowth ([1]; N2a cells) is on record?
The neurite outgrowth was “promoted neurite outgrowth”.

For `CC(C)c1c(-c2ccc(CCN(C)CCCCCCCCCC(=O)NCCOCCOCCOc3cccc4c3C(=O)N(C3CCC(=O)NC3=O)C4=O)cc2)[nH]c2c(C#N)cnn2c1=O` (centres unmarked) [Compound 14b, 10-{[4-(3-Cyano-6-isopropyl-7-oxo-4,7-dihydropyrazolo[1,5-a]pyrimidin-5-yl)phenethyl](methyl)-amino}-N-{2-[2-(2,6-dioxopiperidin-3-yl)-1,3-dioxoindolin-4-yl]oxy}ethoxy}ethyl}decanamide Hydrochloride], which neurite outgrowth ([1]; N2a cells) is on record?
The neurite outgrowth was “promoted neurite outgrowth”.

What about the “neurite outgrowth-promoting activity, comparison between compounds” value ([1]; N2a cells) of the same molecule?
The value was “stronger neurite outgrowth-promoting activity than compound 14a”.

With `CC(C)c1c(-c2ccc(CCN(C)CCCCCCc3ccc(C(=O)NCCOCCOCCOc4cccc5c4C(=O)N(C4CCC(=O)NC4=O)C5=O)cc3)cc2)[nH]c2c(C#N)cnn2c1=O` (centres unmarked) [Compound 20a] as the molecule, how does the neurite outgrowth ([1]; N2a cells) read?
The neurite outgrowth was “promoted neurite outgrowth”.

For `CC(C)c1c(-c2ccc(CCN(C)CCCCCCc3ccc(C(=O)NCCCCCCOc4cccc5c4C(=O)N(C4CCC(=O)NC4=O)C5=O)cc3)cc2)[nH]c2c(C#N)cnn2c1=O` (centres unmarked) [Compound 23a, 4-(6-{[4-(3-cyano-6-isopropyl-7-oxo-4,7-dihydropyrazolo[1,5-a]pyrimidin-5-yl)phenethyl](methyl)amino}hexyl)-N-(6-{[2-(2,6-dioxopiperidin-3-yl) -1, 3 - dioxoindolin-4-yl]oxy}hexyl) benzamide hydrochloride], which neurite outgrowth ([1]; N2a cells) is on record?
Its neurite outgrowth is “promoted neurite outgrowth”.

How did the HDAC1 inhibitory activity (HDAC1) turn out when `CC(C)c1c(-c2ccc(CCN(C)CCCCCCc3cccc(C(=O)NCCCCCCOc4cccc5c4C(=O)N(C4CCC(=O)NC4=O)C5=O)c3)cc2)[nH]c2c(C#N)cnn2c1=O` (centres unmarked) [Compound 23b, 3-(6-{[4-(3-Cyano-6-isopropyl-7-oxo-4,7-dihydropyrazolo[1,5-a]pyrimidin-5-yl)phenethyl](methyl)-amino}hexyl)-N-(6-{[2-(2,6-dioxopiperidin-3-yl)-1,3-dioxoindolin-4-yl]oxy}hexyl)benzamide Hydrochloride] was run?
Its HDAC1 inhibitory activity is “without affecting HDAC1”.

And the “neurite outgrowth-promoting activity, overall assessment” value ([1]; N2a cells (Fig. 21(B)))?
The value was “remarkable neurite outgrowth-promoting activity”.

And the “time-dependent neurite outgrowth activity (number of neurite cells)” value ([1]; N2a cells, 0.02 µM, 24, 48 and 72 hours (Fig. 21(D)))?
Its value is “increased the number of neurite cells in a time-dependent manner”.

And the neurite outgrowth ([1]; N2a cells)?
Its neurite outgrowth is “promoted neurite outgrowth”.

What about the “neurite outgrowth-promoting activity, comparison between compounds” value ([1]; N2a cells, Hydrochloride) of the same molecule?
The value was “superior to those of the para-substituent compounds 20a and 23a; also recorded: slightly better than that of the polyethylene linker compound 20b”.

And the “dose-dependent neurite outgrowth activity” value ([1]; N2a cells)?
The value was “promoted neurite outgrowth”.

What about the H3K4me3 levels (H3K4me3) of the same molecule?
The H3K4me3 levels was “dose-dependent accumulation of H3K4me3 levels”.

What about the KDM5A inhibitory activity (KDM5A [2]) of the same molecule?
Its KDM5A inhibitory activity is “strongly inhibited KDM5A”.

And the H3K27Ac levels (H3K27Ac)?
Its H3K27Ac levels is “upregulated H3K27Ac levels”.

And the “KDM5A levels on co-treatment with proteasome inhibitor MG-132” value (KDM5A [3]; 24 h co-treatment with MG-132 (Fig. 25(C), 25(D)))?
The value was “disturbed by the proteasome inhibitor MG-132”.

What about the KDM5A levels (KDM5A [3]; 24 h treatment (Fig. 25(A), 25(B))) of the same molecule?
The KDM5A levels was “decreased KDM5A levels in a dose-dependent manner”.

How did the “dose-dependent neurite outgrowth activity” value ([1]; N2a cells) turn out when `O=C1CCC(N2C(=O)c3ccccc3C2=O)C(=O)N1` (centres unmarked) [Compound 26, thalidomide, reference compound] was run?
Its value is “did not show strong neurite outgrowth activity relative to Compounds 20b and 23b”.
